{"source": "paper PMC5327911", "about": "(Clinical Pharmacology : Advances and Applications, 2017)", "key": {"Safety [1]": {"experiment": "Safety", "type": "in vivo, human"}, "[2]": {"type": "in vivo, human"}, "Safety [3]": {"experiment": "Safety", "type": "in vivo, human", "remark": "listed apart in the source"}, "[4]": {"settings": "cited from earlier work"}, "[5]": {"settings": "cited from earlier work", "remark": "listed apart in the source"}, "[6]": {"tested_on": "CYP3A4 or other CYP isoenzymes", "settings": "cited from earlier work"}, "CYP system": {"tested_on": "CYP system", "settings": "cited from earlier work"}, "[7]": {"settings": "apixaban 10 mg + atenolol 100 mg vs apixaban 10 mg"}}, "note": "Like-named read-outs stand apart in the source and are kept apart here.", "data": [{"compound": "COc1ccc(-n2nc(C(N)=O)c3c2C(=O)N(c2ccc(N4CCCCC4=O)cc2)CC3)cc1", "note": "[Apixaban]", "values": [{"measurement": "Number of AEs", "setting": "Safety [1]; apixaban 10 mg alone, none bleeding-related", "result": "five"}, {"measurement": "Deaths, serious AEs, major bleeding-related AEs", "setting": "Safety [1]; single doses of apixaban 10 mg, atenolol 100 mg, or both", "result": "No deaths, serious AEs, or major bleeding-related AEs"}, {"measurement": "Effect of apixaban on the PK of digoxin", "setting": "[2]; apixaban 20 mg once daily, digoxin 0.25 mg once daily", "result": "no effect"}, {"measurement": "Deaths, serious AEs, major bleeding-related AEs", "setting": "Safety [3]; digoxin 0.25 mg, then digoxin 0.25 mg + apixaban 20 mg once daily", "result": "No deaths, serious AEs, or major bleeding-related AEs"}, {"measurement": "mean elimination half-life (t1/2)", "setting": "[4]; apixaban in healthy subjects", "result": "~ 12 hours"}, {"measurement": "lower apixaban AUCinf in subjects ≥120 kg", "setting": "[4]; effect of body weight", "result": 23, "unit": "%"}, {"measurement": "lower apixaban Cmax in subjects ≥120 kg", "setting": "[4]; effect of body weight", "result": 31, "unit": "%"}, {"measurement": "bound to serum proteins", "setting": "[5]; apixaban", "result": 87, "unit": "%"}, {"measurement": "protein-bound", "setting": "[5]", "result": 87, "unit": "%"}, {"measurement": "inhibition or induction of CYP3A4 or other CYP isoenzymes", "setting": "[6]", "result": "does not inhibit or induce"}, {"measurement": "Decrease in apixaban AUC0–t when coadministered with atenolol", "setting": "[7]", "result": 15, "unit": "%"}, {"measurement": "Decrease in apixaban AUCinf when coadministered with atenolol", "setting": "[7]", "result": 15, "unit": "%"}, {"measurement": "Decrease in apixaban Cmax when coadministered with atenolol", "setting": "[7]", "result": 18, "unit": "%"}, {"measurement": "Pharmacokinetic interaction between apixaban and atenolol", "setting": "apixaban 10 mg, atenolol 100 mg, single doses", "result": "no clinically relevant interaction"}, {"measurement": "AUCinf", "setting": "apixaban, Treatment C, apixaban 10 mg + atenolol 100 mg, geometric mean (CV %), n=14", "result": "1878 (33) ng·h/mL"}, {"measurement": "AUC(0-inf)", "setting": "human, plasma, oral, 10 mg", "result": 2160, "unit": "ng·h/mL"}, {"measurement": "AUC(0-t)", "setting": "human, plasma, oral, 10 mg", "result": 2100, "unit": "ng·h/mL"}, {"measurement": "Cmax", "setting": "human, plasma, oral, 10 mg", "result": 216, "unit": "ng/mL"}, {"measurement": "Tmax", "setting": "human, plasma, oral, 10 mg", "result": 3, "unit": "h"}, {"measurement": "half-life", "setting": "human, plasma, oral, 10 mg", "result": 834, "unit": "min"}]}, {"compound": "CC(C)NCC(O)COc1ccc(CC(N)=O)cc1", "note": "(centres unmarked) [Atenolol, atenolol]", "values": [{"measurement": "Tolerability of coadministration with apixaban", "setting": "Safety [1]; healthy subjects, atenolol 100 mg + apixaban 10 mg", "result": "generally well tolerated"}]}, {"compound": "C[C@H]1O[C@@H](O[C@H]2[C@@H](O)C[C@H](O[C@H]3[C@@H](O)C[C@H](O[C@H]4CC[C@@]5(C)[C@H](CC[C@@H]6[C@@H]5C[C@@H](O)[C@]5(C)[C@@H](C7=CC(=O)OC7)CC[C@]65O)C4)O[C@@H]3C)O[C@@H]2C)C[C@H](O)[C@@H]1O", "note": "[Digoxin, digoxin]", "values": [{"measurement": "induction or inhibition of the CYP system", "setting": "CYP system", "result": "does not appear to induce or inhibit"}, {"measurement": "Tmax", "setting": "[2]; digoxin, Treatment B, digoxin 0.25 mg + apixaban 20 mg, day 20, median (min, max)", "result": "1.00 (1.0, 2.0) h"}, {"measurement": "AUC", "setting": "[2]; human, serum, oral, 0.25 mg", "result": 16.8, "unit": "ng·h/mL"}, {"measurement": "Cmax", "setting": "[2]; human, serum, oral, 0.25 mg", "result": 1.68, "unit": "ng/mL"}, {"measurement": "Tolerability of coadministration with apixaban", "setting": "Safety [3]; healthy subjects, digoxin 0.25 mg + apixaban 20 mg", "result": "generally well tolerated"}]}]}
